Assay results published in patent US20070099931A1, “Pharmaceutical dosage forms and compositions” (Wyeth, priority 2004, published 2007).
Converted amounts (≈) assume the structure as drawn.

Columns and labels:
[1] = tested on: 5-HT1A agonist discriminative stimulus cue; conditions: 0.01-1 mg/kg im; cited from earlier work
[2] = Solubility in water; assay type: physicochemical; conditions: 25° C.
[3] = tested on: hippocampal extracellular 5-HT; conditions: cited from earlier work
[4] = tested on: 5-HT1A receptor; conditions: chronic administration; cited from earlier work
[5] = marmosets, 2 mg/kg im; cited from earlier work
[6] = aged rhesus monkeys, optimal dose 1 mg/kg po; cited from earlier work
[7] = tested on: glutamate and acetylcholine release; conditions: dentate gyrus of the hippocampus; cited from earlier work
[8] = biological target: T1, 5-HT1A receptor (Homo sapiens, UniProt P08908); conditions: in vitro; cited from earlier work
T1 sequence (P08908 1-422): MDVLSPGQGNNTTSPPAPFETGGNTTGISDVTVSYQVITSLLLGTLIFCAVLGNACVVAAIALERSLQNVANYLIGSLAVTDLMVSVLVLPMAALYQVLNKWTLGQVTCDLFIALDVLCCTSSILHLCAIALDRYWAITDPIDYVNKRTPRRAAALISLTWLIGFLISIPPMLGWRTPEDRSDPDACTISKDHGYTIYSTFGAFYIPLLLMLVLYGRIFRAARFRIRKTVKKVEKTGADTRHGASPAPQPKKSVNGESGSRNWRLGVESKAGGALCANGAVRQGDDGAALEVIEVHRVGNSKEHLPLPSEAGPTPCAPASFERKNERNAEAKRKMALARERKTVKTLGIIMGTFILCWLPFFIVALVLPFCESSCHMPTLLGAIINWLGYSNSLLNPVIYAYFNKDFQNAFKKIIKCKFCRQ

## C[C@H](CN(C(=O)c1ccc(C#N)cc1)c1ccccn1)N1CCN(c2cccc3c2OCCO3)CC1 [lecozotan, 4-cyano-N-{(2R)-2-[4-(2,3-dihydro-benzo[1,4]dioxin-5-yl)-piperazin-1-yl]-propyl}-N-pyridin-2-yl-benzamide]
[1]
  blockade of the 5-HT1A agonist discriminative stimulus cue: dose-related blockade
  substitution for 8-OH-DPAT: did not substitute for 8-OH-DPAT
[2]
  solubility: ~51 mg/mL (≈ 105 mM)
[3]; doses 10-fold higher than 0.3 mg/kg sc
  effect alone on hippocampal extracellular 5-HT: had no effects alone
[3]; lecozotan 0.3 mg/kg sc
  effect on decrease in hippocampal extracellular 5-HT induced by 8 OH-DPAT (0.3 mg/kg sc): antagonized the decrease in hippocampal extracellular 5-HT
[4]
  5-HT1A receptor tolerance or desensitization: did not induce 5-HT1A receptor tolerance or desensitization
[5]
  learning deficits induced by specific cholinergic lesions of the hippocampus: reversed
  learning deficits induced by the glutamatergic antagonist MK-801: reversed
[6]
  task performance efficiency: significant improvement in task performance efficiency
[7]
  potassium chloride-stimulated release of glutamate and acetylcholine: significantly potentiated
[8]
  5-HT1A receptor binding and intrinsic activity: potent and selective 5-HT1A receptor antagonist
